Test results from patent publication US20160193206A1, “BET-PROTEIN-INHIBITING DIHYDROPYRIDOPYRAZINONES” (BAYER PHARMA AKTIENGESELLSCHAFT, priority 2012, published 2016).
pIC50: −log10 of the molar value.

Tests used:
[1] = biological target: T1, BRD4 bromo domain 1 [BRD4(1)] (Homo sapiens, UniProt O60885); assay: BRD4(1)/acetylated peptide H4 binding assay (TR-FRET); settings: inhibition of interaction between His6-tagged BRD4(1) (amino acids 67-152) and acetylated histone H4 peptide
T1 construct: N-terminally His6-tagged BRD4(1) (amino acids 67-152); made in house; host or cells: E. coli
How it was run: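 TR-FRET measured displacement of a biotinylated tetra-acetylated H4 peptide from His6-BRD4(1) (aa 67-152, E. coli-expressed, typically 10 nM) in HEPES pH 7.5 buffer. Compounds were tested at 11 concentrations (0.1 nM–20 μM), with 10 min preincubation, then 1 h at 22 °C and ≥3 h at 4 °C. The 665/620 nm ratio gave IC50 by 4-parameter fit.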

[2] = test system: MOLM-13 cell line; assay: MOLM-13 cell proliferation assay (alamarBlue); type: cell-based; settings: Homo sapiens, inhibition of proliferation of MOLM-13 cells (acute myeloid leukaemia), 96 hours incubation
Description: In accordance with the invention, the substances were tested for their ability to inhibit the proliferation of the MOLM-13 cell linie (Deutsche Sammlung für Mikroorganismen und Zellkulturen [German Collection of Microorganisms and Cell Cultures], ACC 554; acute myeloid leukaemia). Cell viability was determined by means of the alamarBlue® reagent (Invitrogen) in a Victor X3 Multilabel Reader (Perkin Elmer). The excitation wavelength was 530 nm and the emission wavelength […].
The MOLM-13 cells were sown at a density of 4000 cells/well in 100 μl of growth medium on 96-well microtitre plates. After overnight incubation at 37° C., the fluorescence values were determined (CI values). The plates were then treated with various substance dilutions and incubated at 37° C. for 96 hours. Subsequently, the fluorescence values were determined (CO values). For the data analysis, the CI values were subtracted from the CO values and the results were compared between cells which had been treated with various dilutions of the substance or only with buffer solution. The IC50 values (substance concentration needed for 50% inhibition of cell proliferation) were calculated therefrom.

[3] = biological target: T2, BRD4 bromo domain 2 [BRD4(2)] (Homo sapiens, UniProt O60885); assay: BRD4(2)/acetylated peptide H4 binding assay (TR-FRET); settings: inhibition of interaction between His6-tagged BRD4(2) (amino acids 357-445) and acetylated histone H4 peptide
T2 construct: N-terminally His6-tagged BRD4(2) (amino acids 357-445); made in house; host or cells: E. coli
How it was run: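 TR-FRET displacement of biotinylated tetra-acetylated H4 peptide from His6-BRD4(2) (aa 357-445, E. coli-expressed), 100 nM final, in HEPES pH 7.5 buffer; 11 compound concentrations 0.1 nM-20 μM, 10 min preincubation, then 1 h 22 °C plus ≥3 h 4 °C. 665/620 ratio read; IC50 by 4-parameter fit.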

Row | pIC50 [1] | pIC50 [2] | pIC50 [3] | Compound
1 | 6.85 | 6.57 | 6.81 | C[C@@H]1C(=O)N(C)c2ccc(Nc3ccc(C(=O)NCCN4CCN(C)CC4)cc3)nc2N1C1CCCCC1 [Example 66, 4-{[(3R)-4-Cyclohexyl-1,3-dimethyl-2-oxo-1,2,3,4-tetrahydropyrido[2,3-b]pyrazin-6-yl]amino}-N-[2-(4-methylpiperazin-1-yl)ethyl]benzamide]
2 | 6.75 | 6.58 | 6.96 | COc1cc(C(=O)NCCN2CCN(C)CC2)ccc1Nc1ccc2c(n1)N(C1CCCCC1)[C@H](C)C(=O)N2C [Example 67, 4-{[(3R)-4-Cyclohexyl-1,3-dimethyl-2-oxo-1,2,3,4-tetrahydropyrido[2,3-b]pyrazin-6-yl]amino}-3-methoxy-N-[2-(4-methylpiperazin-1-yl)ethyl]benzamide]
3 | 6.58 | 6.26 | 6.51 | C[C@@H]1C(=O)N(C)c2ccc(Nc3ccc(C(=O)N[C@H]4CC[C@H](N5CCN(CC6CC6)CC5)CC4)cc3)nc2N1C1CCCCC1 [Example 68, 4-{[(3R)-4-Cyclohexyl-1,3-dimethyl-2-oxo-1,2,3,4-tetrahydropyrido[2,3-b]pyrazin-6-yl]amino}-N-{trans-4-[4-(cyclopropylmethyl)piperazin-1-yl]cyclohexyl}benzamide]
4 | 6.79 | 6.45 | 7.05 | C[C@@H]1C(=O)N(C)c2ccc(Nc3ccc(C(=O)N4CC5(COC5)C4)cc3)nc2N1C1CCCCC1 [Example 69, (3R)-4-Cyclohexyl-1,3-dimethyl-6-{[4-(2-oxa-6-azaspiro[3.3]hept-6-ylcarbonyl)phenyl]amino}-3,4-dihydropyrido[2,3-b]pyrazin-2(1H)-one]
5 | 6.62 | 6.63 | 6.92 | COc1cc(C(=O)N[C@H]2CC[C@H](N3CCN(CC4CC4)CC3)CC2)ccc1Nc1ccc2c(n1)N(C1CCCCC1)[C@H](C)C(=O)N2C [Example 70, 4-{[(3R)-4-Cyclohexyl-1,3-dimethyl-2-oxo-1,2,3,4-tetrahydropyrido[2,3-b]pyrazin-6-yl]amino}-N-{trans-4-[4-(cyclopropylmethyl)piperazin-1-yl]cyclohexyl}-3-methoxybenzamide]
6 | 6.88 | 6.60 | 6.93 | COc1cc(C(=O)NC2CN(C)C2)ccc1Nc1ccc2c(n1)N(C1CCCCC1)[C@H](C)C(=O)N2C [Example 72, 4-{[(3R)-4-Cyclohexyl-1,3-dimethyl-2-oxo-1,2,3,4-tetrahydropyrido[2,3-b]pyrazin-6-yl]amino}-3-methoxy-N-(1-methylazetidin-3-yl)benzamide]

Further lines, the compound ahead of its results:

Row | Compound | pIC50 [1] | pIC50 [2] | pIC50 [3]
7 | C[C@@H]1C(=O)N(C)c2ccc(Nc3ccc(C(=O)N4CC5(COC5)C4)cc3)nc2N1Cc1ccccc1 [Example 41, (3R)-4-Benzyl-1,3-dimethyl-6-{[4-(2-oxa-6-azaspiro[3.3]hept-6-ylcarbonyl)phenyl]amino}-3,4-dihydropyrido[2,3-b]pyrazin-2(1H)-one] | 6.91 | 6.72 | 6.96
8 | C[C@@H]1C(=O)N(C)c2ccc(Nc3ccc(C(=O)NC4CCC(O)CC4)cc3)nc2N1Cc1ccccc1 (stereo partly drawn) [Example 42, 4-{[(3R)-4-Benzyl-1,3-dimethyl-2-oxo-1,2,3,4-tetrahydropyrido[2,3-b]pyrazin-6-yl]amino}-N-(4-hydroxycyclohexyl)benzamide] | 6.81 | 6.49 | 7.00
9 | COc1cc(C(=O)N2CCN(C)CC2)ccc1Nc1ccc2c(n1)N(C1CCOCC1)[C@H](C)C(=O)N2C [Example 45, (3R)-6-({2-Methoxy-4-[(4-methylpiperazin-1-yl)carbonyl]phenyl}amino)-1,3-dimethyl-4-(tetrahydro-2H-pyran-4-yl)-3,4-dihydropyrido[2,3-b]pyrazin-2(1H)-one] | 7.11 | 6.27 | 7.07
10 | C[C@@H]1C(=O)N(C)c2ccc(Nc3ccc(C(=O)NCCN(C)C)cc3)nc2N1C1CCOCC1 [Example 48, N-[2-(Dimethylamino)ethyl]-4-{[(3R)-1,3-dimethyl-2-oxo-4-(tetrahydro-2H-pyran-4-yl)-1,2,3,4-tetrahydropyrido[2,3-b]pyrazin-6-yl]amino}benzamide] | 6.99 | 6.23 | 6.78
11 | C[C@@H]1C(=O)N(C)c2ccc(Nc3ccc(C(=O)NC4CN(C)C4)cc3)nc2N1C1CCOCC1 [Example 50, 4-{[(3R)-1,3-Dimethyl-2-oxo-4-(tetrahydro-2H-pyran-4-yl)-1,2,3,4-tetrahydropyrido[2,3-b]pyrazin-6-yl]amino}-N-(1-methylazetidin-3-yl)benzamide] | 6.84 | 6.24 | 6.95
12 | C[C@@H]1C(=O)N(C)c2ccc(Nc3ccc(C(=O)NCCN4CCN(C)CC4)cc3)nc2N1C1CCOCC1 [Example 51, 4-{[(3R)-1,3-Dimethyl-2-oxo-4-(tetrahydro-2H-pyran-4-yl)-1,2,3,4-tetrahydropyrido[2,3-b]pyrazin-6-yl]amino}-N-[2-(4-methylpiperazin-1-yl)ethyl]benzamide] | 6.86 | 6.29 | 6.66
13 | COc1cc(C(=O)N2CCC(N3CCCCC3)CC2)ccc1Nc1ccc2c(n1)N(C1CCOCC1)[C@H](C)C(=O)N2C [Example 53, (3R)-6-{[4-(1,4′-Bipiperidin-1′-ylcarbonyl)-2-methoxyphenyl]amino}-1,3-dimethyl-4-(tetrahydro-2H-pyran-4-yl)-3,4-dihydropyrido[2,3-b]pyrazin-2(1H)-one] | 7.05 | 6.60 | 7.03
14 | COc1cc(C(=O)NC2CN(C)C2)ccc1Nc1ccc2c(n1)N(C1CCOCC1)[C@H](C)C(=O)N2C [Example 55, 4-{[(3R)-1,3-Dimethyl-2-oxo-4-(tetrahydro-2H-pyran-4-yl)-1,2,3,4-tetrahydropyrido[2,3-b]pyrazin-6-yl]amino}-3-methoxy-N-(1-methylazetidin-3-yl)benzamide] | 6.67 | 6.18 | 6.89
15 | C[C@@H]1C(=O)N(C)c2ccc(Nc3ccc(C(=O)N[C@H]4CC[C@H](N5CCN(CC6CC6)CC5)CC4)cc3)nc2N1C1CCOCC1 [Example 57, N-{trans-4-[4-(Cyclopropylmethyl)piper-azin-1-yl]cyclohexyl}-4-{[(3R)-1,3-dimethyl-2-oxo-4-(tetrahydro-2H-pyran-4-yl)-1,2,3,4-tetrahydropyrido[2,3-b]pyrazin-6-yl]amino}benzamide] | 6.86 | 6.44 | 6.81
16 | C[C@@H]1C(=O)N(C)c2ccc(Nc3ccc(C(=O)NC4CCN(C)CC4)cc3)nc2N1C1CCOCC1 [Example 58, 4-{[(3R)-1,3-Dimethyl-2-oxo-4-(tetrahydro-2H-pyran-4-yl)-1,2,3,4-tetrahydropyrido[2,3-b]pyrazin-6-yl]amino}-N-(1-methylpiperidin-4-yl)benzamide] | 6.95 | 6.47 | 6.87
17 | COc1cc(C(=O)NCCc2cccnc2)ccc1Nc1ccc2c(n1)N(C1CCOCC1)[C@H](C)C(=O)N2C [Example 61, 4-{[(3R)-1,3-Dimethyl-2-oxo-4-(tetrahydro-2H-pyran-4-yl)-1,2,3,4-tetrahydropyrido[2,3-b]pyrazin-6-yl]amino}-3-methoxy-N-[2-(pyridin-3-yl)ethyl]benzamide] | 6.76 | 6.39 | 6.96
18 | COc1cc(C(=O)NC2CCC(N3CCC(F)(F)CC3)CC2)ccc1Nc1ccc2c(n1)N(C1CCOCC1)[C@H](C)C(=O)N2C (stereo partly drawn) [Example 62, N-[4-(4,4-Difluoropiperidin-1-yl)cyclohexyl]-4-{[(3R)-1,3-dimethyl-2-oxo-4-(tetrahydro-2H-pyran-4-yl)-1,2,3,4-tetrahydropyrido[2,3-b]pyrazin-6-yl]amino}-3-methoxybenzamide] | 6.73 | 6.35 | 6.84
19 | COc1cc(C(=O)NCCN2CCN(C)CC2)ccc1Nc1ccc2c(n1)N(C1CCOCC1)[C@H](C)C(=O)N2C [Example 64, 4-{[(3R)-1,3-Dimethyl-2-oxo-4-(tetrahydro-2H-pyran-4-yl)-1,2,3,4-tetrahydropyrido[2,3-b]pyrazin-6-yl]amino}-3-methoxy-N-[2-(4-methylpiperazin-1-yl)ethyl]benzamide] | 6.75 | 6.51 | 7.09
